According to the supplement of paper PMC10307832:

Compound: Cn1cc(-c2cnn3c(N)c(Br)c([C@@H]4CCCNC4)nc23)cn1 + CC(=O)Nc1cccc(-n2c(=O)n(C3CC3)c(=O)c3c(Nc4ccc(I)cc4F)n(C)c(=O)c(C)c32)c1 [Trametinib] (partner 0.02 µM)
Assay: relative viability (nuclei count vs DMSO), 5 days (fraction); higher = more cells survive
Outline: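 After 5 days of treatment, lung cancer cells in 1536-well plates were fixed and stained in a single step (final 0.05% Triton X-100, 1% formaldehyde, 1 ug/ml Hoechst) and their nuclei counted on 4× images. Treatment had been applied by pin tool the day after seeding as one drug alone or as a fixed anchor-drug dose with five library-drug doses (not always all listed) in √10 steps. Relative viability is the nuclei count of treated wells divided by that of vehicle wells, and values are medians of duplicate plates.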

| Cell Line | relative viability (first compound 0.05 µM) | relative viability (first compound 0.1581 µM) | relative viability (first compound 0.5 µM) | relative viability (first compound 1.581 µM) | relative viability (first compound 5 µM) |
| --- | --- | --- | --- | --- | --- |
| 201T | 0.692 | 0.751 | 0.687 | 0.722 | 0.7 |
| A-427 | 0.756 | 0.675 | 0.704 | 0.651 | 0.341 |
| BEN | 1.19 | 1.01 | 0.907 | 0.966 | 0.881 |
| CAL-12T | 0.288 | 0.346 | 0.315 | 0.33 | 0.278 |
| COR-L23 | 0.694 | 0.671 | 0.582 | 0.437 | 0.232 |
| COR-L 105 | 0.424 | 0.436 | 0.414 | 0.417 | 0.422 |
| ChaGo-K-1 | 0.926 | 0.925 | 0.874 | 0.806 | 0.972 |
| EKVX | 0.445 | 0.317 | 0.413 | 0.377 | 0.409 |
| EMC-BAC-2 | 0.885 | 0.664 | 0.927 | 0.878 | 0.515 |
| EPLC-272H | 0.276 | 0.273 | 0.286 | 0.272 | 0.218 |
| H3255 | 0.694 | 0.534 | 0.668 | 0.633 | 0.405 |
| HARA | 0.762 | 0.474 | 0.482 | 0.532 | 0.344 |
| HCC-15 | 0.38 | 0.421 | 0.379 | 0.393 | 0.409 |
| HCC-44 | 0.998 | 1.09 | 1.12 | 1.08 | 1.13 |
| HCC-78 | 0.822 | 1.14 | 0.834 | 0.844 | 0.674 |
| HCC-366 | 0.388 | 0.311 | 0.301 | 0.284 | 0.286 |
| HCC-827 | 0.499 | 0.541 | 0.556 | 0.549 | 0.444 |
| HOP-62 | 0.354 | 0.376 | 0.404 | 0.339 | 0.34 |

| Cell Line | relative viability (first compound 0.05 µM) | relative viability (first compound 0.1581 µM) | relative viability (first compound 0.5 µM) | relative viability (first compound 1.581 µM) | relative viability (first compound 5 µM) |
| --- | --- | --- | --- | --- | --- |
| LC-2-ad | 0.974 | 0.986 | 0.935 | 0.931 | 0.961 |
| LCLC-97TM1 | 0.151 | 0.202 | 0.182 | 0.207 | 0.224 |
| LCLC-103H | 0.641 | 0.7 | 0.717 | 0.677 | 0.684 |
| LK-2 | 0.974 | 1.05 | 0.719 | 0.626 | 0.625 |
| LOU-NH91 | 0.804 | 0.776 | 0.751 | 0.749 | 0.665 |
| LU99A | 0.464 | 0.572 | 0.599 | 0.492 | 0.518 |
| LXF-289 | 0.712 | 0.71 | 0.662 | 0.62 | 0.673 |
| NCI-H23 | 0.364 | 0.401 | 0.304 | 0.355 | 0.178 |
| NCI-H322M | 0.553 | 0.495 | 0.519 | 0.491 | 0.391 |
| NCI-H358 | 0.132 | 0.115 | 0.122 | 0.102 | 0.121 |
| NCI-H441 | 0.431 | 0.491 | 0.426 | 0.337 | 0.429 |
| NCI-H460 | 0.152 | 0.209 | 0.0974 | 0.0913 | 0.0615 |
| NCI-H520 | 0.685 | 0.642 | 0.591 | 0.699 | 0.542 |
| NCI-H596 | 0.899 | 0.832 | 0.886 | 0.768 | 0.832 |
| NCI-H647 | 0.52 | 0.44 | 0.403 | 0.373 | 0.313 |
| NCI-H650 | 0.913 | 1.01 | 0.957 | 0.901 | 0.82 |
| NCI-H661 | 0.562 | 0.59 | 0.495 | 0.534 | 0.478 |
